These results are taken from ChEMBL document CHEMBL5223069, “Design, synthesis and biological evaluation of vortioxetine derivatives as new COX-1/2 inhibitors in human monocytes” (Bioorg Med Chem, 2020).

Active and inactive are the calls of the source. The rule behind the calls is not given here.

Data set [1] concerns Monocyte. Description: Cytotoxicity against human monocytes assessed as reduction in cell viability at 0.01 to 10 uM incubated for 1 to 6 hrs by MTT assay. The conditions noted are these: dose lower 0.01 µM, time lower 1 hrs, dose upper 10 µM, time upper 6 hrs. It is filed as toxicity, cell-based. In general terms: Formazan colour is commonly taken as a measure of viable cells.

Data set [2] deals with Monocyte. Description: Induction of superoxide anion production in human monocytes assessed as increase in reduced cytochrome C level at 0.0025 to 1 uM incubated for 1 hr. In kind it is functional, cell-based. The conditions noted are these: dose 0.0025-1 µM.
Data set [3] deals with Monocyte. Briefly: Induction of IL-1beta mRNA expression in human monocytes at 7.5 nM incubated for 1 hr by RT-PCR analysis. In kind it is functional, cell-based.
Data set [4] deals with Monocyte. Description: Inhibition of PMA-induced oxidative burst in human monocytes preincubated for 1 hr followed by PMA stimulation and measured after 30 mins. It is filed as functional, cell-based.
For data set [5], the system named is Monocyte. Briefly: Modulation of LPS-induced TNF-alpha mRNA expression in human monocytes at 7.5 nM preincubated for 1 hr followed by LPS stimulation and measured after 30 mins by RT-PCR analysis. It is filed as functional, cell-based. The conditions noted are these: time 1.5 hrs.
For data set [6], the target named is T1, Prostaglandin G/H synthase 2 (Homo sapiens) (UniProt P35354).
T1 sequence (whole entry): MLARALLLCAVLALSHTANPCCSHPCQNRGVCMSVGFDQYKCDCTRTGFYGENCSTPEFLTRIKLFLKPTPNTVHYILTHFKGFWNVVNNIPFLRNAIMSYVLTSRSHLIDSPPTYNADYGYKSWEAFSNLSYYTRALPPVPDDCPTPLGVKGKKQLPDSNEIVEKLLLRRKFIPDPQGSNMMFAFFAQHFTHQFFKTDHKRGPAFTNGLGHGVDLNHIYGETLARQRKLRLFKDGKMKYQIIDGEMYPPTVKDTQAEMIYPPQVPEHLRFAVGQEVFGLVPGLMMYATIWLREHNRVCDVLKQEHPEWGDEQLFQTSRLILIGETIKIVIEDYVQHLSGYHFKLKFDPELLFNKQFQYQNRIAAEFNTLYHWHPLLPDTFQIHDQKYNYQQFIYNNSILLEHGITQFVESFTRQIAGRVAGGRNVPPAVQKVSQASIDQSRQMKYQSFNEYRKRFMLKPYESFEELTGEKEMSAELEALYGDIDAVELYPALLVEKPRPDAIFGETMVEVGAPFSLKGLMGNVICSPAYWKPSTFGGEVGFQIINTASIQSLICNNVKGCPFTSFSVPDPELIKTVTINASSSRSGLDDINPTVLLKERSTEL
The conditions noted are these: dose 0.1-50 nM.
Description: Inhibition of human COX-2 at 0.1 to 50 nM by spectrophotometer analysis

In data set [7] the target is Prostaglandin G/H synthase 1 (Homo sapiens) (UniProt P23219). Briefly: Inhibition of human COX-1 at 0.1 to 50 nM by spectrophotometer analysis. The conditions noted are these: dose 0.1-50 nM.
Data set [8] has as its system Monocyte. Briefly: Inhibition of PMA-induced oxidative burst in human monocytes at 0.1 to 50 nM preincubated for 1 hr followed by PMA stimulation and measured after 30 mins relative to control. The conditions noted are these: dose 0.1-50 nM, time 1.5 hrs. It is filed as functional.
Data set [9] deals with Monocyte. Briefly: Modulation of LPS-induced IL-10 mRNA expression in human monocytes at 7.5 nM preincubated for 1 hr followed by LPS stimulation and measured after 30 mins by RT-PCR analysis. In kind it is functional, cell-based. The conditions noted are these: time 1.5 hrs.
Data set [10] concerns Monocyte. Description: Induction of IL-6 mRNA expression in human monocytes at 7.5 nM incubated for 1 hr by RT-PCR analysis. It is filed as functional, cell-based.
The subject of data set [11] is Monocyte. Briefly: Modulation of LPS-induced IL-1beta mRNA expression in human monocytes at 7.5 nM preincubated for 1 hr followed by LPS stimulation and measured after 30 mins by RT-PCR analysis. In kind it is functional, cell-based. The conditions noted are these: time 1.5 hrs.
Data set [12] deals with Monocyte. Description: Inhibition of PMA-induced COX-2 expression in human monocytes at 7.5 nM preincubated for 1 hr followed by PMA stimulation and measured after 30 mins by RT-PCR analysis. It is filed as functional, cell-based. The conditions noted are these: time 1.5 hrs.
Data set [13] has as its system Monocyte. Description: Induction of TNF-alpha mRNA expression in human monocytes at 7.5 nM incubated for 1 hr by RT-PCR analysis. In kind it is functional, cell-based.
Data set [14] relates to Monocyte. Description: Downregulation of PMA-induced IL-6 mRNA expression in human monocytes at 7.5 nM preincubated for 1 hr followed by PMA stimulation and measured after 30 mins by RT-PCR analysis. In kind it is functional, cell-based. The conditions noted are these: time 1.5 hrs.
Data set [15] has as its system Monocyte. Description: Induction of IL-10 mRNA expression in human monocytes at 7.5 nM incubated for 1 hr by RT-PCR analysis. In kind it is functional, cell-based.
The subject of data set [16] is Monocyte. Description: Modulation of LPS-induced IL-6 mRNA expression in human monocytes at 7.5 nM preincubated for 1 hr followed by LPS stimulation and measured after 30 mins by RT-PCR analysis. In kind it is functional, cell-based. The conditions noted are these: time 1.5 hrs.
The test system of data set [17] is Monocyte. Description: Modulation of COX-1 mRNA expression in human monocytes at 7.5 nM incubated for 1 hr by RT-PCR analysis. It is filed as functional, cell-based.
Data set [18] has as its system Monocyte. Description: Induction of TNF-alpha mRNA expression in human monocytes at 1 uM incubated for 1 hr by RT-PCR analysis. In kind it is functional, cell-based.
In data set [19] the test system is Monocyte. Description: Induction of IL-6 mRNA expression in human monocytes at 1 uM incubated for 1 hr by RT-PCR analysis. It is filed as functional, cell-based.
The subject of data set [20] is Monocyte. Description: Modulation of LPS-induced IL-1beta mRNA expression in human monocytes at 1 uM preincubated for 1 hr followed by LPS stimulation and measured after 30 mins by RT-PCR analysis. In kind it is functional, cell-based. The conditions noted are these: time 1.5 hrs.
In data set [21] the test system is Monocyte. Description: Modulation of LPS-induced IL-10 mRNA expression in human monocytes at 1 uM preincubated for 1 hr followed by LPS stimulation and measured after 30 mins by RT-PCR analysis. It is filed as functional, cell-based. The conditions noted are these: time 1.5 hrs.
Data set [22] has as its system Monocyte. Description: Modulation of LPS-induced TNF-alpha mRNA expression in human monocytes at 1 uM preincubated for 1 hr followed by LPS stimulation and measured after 30 mins by RT-PCR analysis. It is filed as functional, cell-based. The conditions noted are these: time 1.5 hrs.
Data set [23] deals with Monocyte. Briefly: Induction of IL-10 mRNA expression in human monocytes at 1 uM incubated for 1 hr by RT-PCR analysis. It is filed as functional, cell-based.
The subject of data set [24] is Monocyte. Briefly: Modulation of LPS-induced IL-6 mRNA expression in human monocytes at 1 uM preincubated for 1 hr followed by LPS stimulation and measured after 30 mins by RT-PCR analysis. It is filed as functional, cell-based. The conditions noted are these: time 1.5 hrs.
Data set [25] deals with Monocyte. Briefly: Induction of IL-1beta mRNA expression in human monocytes at 1 uM incubated for 1 hr by RT-PCR analysis. It is filed as functional, cell-based.
Data set [26] relates to Monocyte. Description: Inhibition of PMA-induced IL-1beta mRNA expression in human monocytes at 7.5 nM preincubated for 1 hr followed by PMA stimulation and measured after 30 mins by RT-PCR analysis. It is filed as functional, cell-based. The conditions noted are these: time 1.5 hrs.
The subject of data set [27] is Monocyte. Briefly: Downregulation of PMA-induced TNF-alpha mRNA expression in human monocytes at 7.5 nM preincubated for 1 hr followed by PMA stimulation and measured after 30 mins by RT-PCR analysis. In kind it is functional, cell-based. The conditions noted are these: time 1.5 hrs.

Sequence of Prostaglandin G/H synthase 1 (Homo sapiens) (P23219 whole entry): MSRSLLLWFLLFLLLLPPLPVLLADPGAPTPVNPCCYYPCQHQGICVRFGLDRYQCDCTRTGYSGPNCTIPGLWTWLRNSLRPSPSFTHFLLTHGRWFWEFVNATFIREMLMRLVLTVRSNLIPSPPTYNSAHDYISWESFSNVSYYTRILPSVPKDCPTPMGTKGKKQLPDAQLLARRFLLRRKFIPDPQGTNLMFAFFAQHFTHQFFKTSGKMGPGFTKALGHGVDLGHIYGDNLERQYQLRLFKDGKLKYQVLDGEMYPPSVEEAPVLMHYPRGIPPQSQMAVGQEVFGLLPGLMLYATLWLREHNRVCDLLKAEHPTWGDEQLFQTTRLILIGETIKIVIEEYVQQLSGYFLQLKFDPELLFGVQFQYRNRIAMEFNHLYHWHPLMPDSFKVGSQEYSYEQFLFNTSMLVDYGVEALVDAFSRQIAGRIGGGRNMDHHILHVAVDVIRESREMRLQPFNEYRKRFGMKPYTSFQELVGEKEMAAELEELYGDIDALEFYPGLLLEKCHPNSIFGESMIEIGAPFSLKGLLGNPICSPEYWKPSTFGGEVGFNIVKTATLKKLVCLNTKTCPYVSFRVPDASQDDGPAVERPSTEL

As to `Cc1ccc(Sc2ccccc2N2CCN(Cc3ccc(Cl)cc3)CC2)c(C)c1`, the Activity entry in the data set on Monocyte [1] is “Non-Toxic”. The result with Monocyte [2] was inactive.
Broadly, the IC50 is the concentration needed to halve the response being measured. Low readings indicate greater potency in that assay, high ones weaker potency in that assay. In the case of `Cc1ccc(Sc2ccccc2N2CCN(Cc3ccccc3F)CC2)c(C)c1`, the result in the data set with Monocyte [3], with Monocyte [5], in the data set on Monocyte [10], in the data set with Monocyte [11], with Monocyte [13] and in the data set on Monocyte [2] was inactive. Besides, the result in the data set with Monocyte [15], with Monocyte [16] and in the data set on Monocyte [17] was inactive. Besides, in the data set with Monocyte [4], the midpoint of inhibition, the IC50, lay at 6.5 nM. Moreover, the inhibition entry (in [6]; in data set [7]; with Monocyte [12]) was “Active” in each case. In the data set with Monocyte [8], the “inhibition (INH)” value was 70%. Also, the outcome with Monocyte [9] and in the data set with Monocyte [14] was Active. In the data set with Monocyte [1], the Activity result is “Non-Toxic”.
As for `CS(=O)(=O)c1ccc(C2=C(c3ccccc3)C(=O)OC2)cc1`, the inhibition result in data set [6] was “Active”. For the same molecule, the result in the data set with Monocyte [18], with Monocyte [19], with Monocyte [20], in the data set on Monocyte [21], in the data set with Monocyte [22] and with Monocyte [23] was inactive. For the same molecule, the result in the data set on Monocyte [24] and with Monocyte [25] was inactive.
For `Cc1ccc(Sc2ccccc2N2CCNCC2)c(C)c1` [VORTIOXETINE], the outcome in the data set with Monocyte [3], in the data set on Monocyte [5], in the data set on Monocyte [9], in the data set on Monocyte [10], in the data set with Monocyte [11] and in the data set with Monocyte [13] was inactive. Besides, the result in the data set with Monocyte [2], in the data set on Monocyte [15], in the data set with Monocyte [16] and in the data set on Monocyte [17] was inactive. The molecule also had a 50% inhibitory concentration (IC50) in the data set on Monocyte [4] of 2.9 nM. The inhibition entry in the data set with Monocyte [26] is “Active”. Moreover, in the data set on Monocyte [8], the “inhibition (INH)” value came to 90%. Also, the Activity result in the data set with Monocyte [1] was “Non-Toxic”. Besides, in the data set on Monocyte [27], the outcome was Active.
For the molecule `Cc1ccc(S(=O)(=O)N2CCN(c3ccccc3Sc3ccc(C)cc3C)CC2)cc1`, the Activity result in the data set with Monocyte [1] is given as “Non-Toxic”. Further, the result in the data set on Monocyte [2] was inactive.
As for `COc1ccc2c(c1)c(CC(=O)O)c(C)n2C(=O)c1ccc(Cl)cc1`, the outcome in the data set with Monocyte [18], in the data set on Monocyte [19], in the data set on Monocyte [20], in the data set on Monocyte [21], in the data set with Monocyte [22] and in the data set on Monocyte [23] was inactive. The outcome with Monocyte [24] and with Monocyte [25] was inactive.
In the case of `Cc1ccc(Sc2ccccc2N2CCN(S(C)(=O)=O)CC2)c(C)c1`, the Activity entry in the data set with Monocyte [1] is recorded as “Non-Toxic”. Also, the outcome in the data set on Monocyte [2] was inactive.
In the same order, the values of `CCN1CCN(c2ccccc2Sc2ccc(C)cc2C)CC1` are “Non-Toxic” and “inactive”.
Consider `Cc1ccc(Sc2ccccc2N2CCN(CC(=O)O)CC2)c(C)c1`, for which the outcome in the data set on Monocyte [3], in the data set on Monocyte [5], with Monocyte [9], in the data set with Monocyte [10], in the data set on Monocyte [11] and with Monocyte [13] was inactive. Moreover, the outcome with Monocyte [2], in the data set on Monocyte [16] and in the data set with Monocyte [17] was inactive. The molecule further displayed an IC50 in the data set on Monocyte [4] of 0.35 nM. The inhibition entry in data set [7] was “Active”. The “inhibition (INH)” value with Monocyte [8] is on record as 90%. Also, the Activity result in the data set with Monocyte [1] is listed as “Non-Toxic”. In addition, in the data set on Monocyte [15], the result was Active.
In the case of `Cc1ccc(Sc2ccccc2N2CCN(Cc3ccccc3C(F)(F)F)CC2)c(C)c1`, the outcome in the data set on Monocyte [3], in the data set with Monocyte [5], with Monocyte [9], with Monocyte [10], in the data set on Monocyte [11] and in the data set on Monocyte [13] was inactive. For the same molecule, the result in the data set with Monocyte [2], in the data set with Monocyte [15], with Monocyte [16] and in the data set on Monocyte [17] was inactive. This molecule yielded an IC50 in the data set with Monocyte [4] of 6.3 nM. Also, the inhibition entry in [7] was “Active”. In addition, the “inhibition (INH)” value in the data set with Monocyte [8] was determined as 80%. The Activity result in the data set with Monocyte [1] was “Non-Toxic”.
Regarding `Cc1ccc(Sc2ccccc2N2CCN(CCO)CC2)c(C)c1`, the Activity result in the data set on Monocyte [1] is “Non-Toxic”. For the same molecule, in the data set on Monocyte [2], the result was inactive.
In the case of `Cc1ccc(Sc2ccccc2N2CCN(CC3CCCC3)CC2)c(C)c1`, the result in the data set with Monocyte [3], in the data set on Monocyte [5], with Monocyte [9], with Monocyte [10], with Monocyte [11] and in the data set with Monocyte [13] was inactive. Moreover, the outcome with Monocyte [2], in the data set with Monocyte [15], in the data set with Monocyte [16] and with Monocyte [17] was inactive. This molecule yielded an IC50 in the data set on Monocyte [4] of 2.7 nM. For the same molecule, the inhibition result in data set [6] and in data set [7] was “Active” throughout. In addition, the “inhibition (INH)” value with Monocyte [8] amounted to 70%. Further, in the data set on Monocyte [1], the Activity result is recorded as “Non-Toxic”.
Turning to `CC(=O)N1CCN(c2ccccc2Sc2ccc(C)cc2C)CC1`, the Activity result in the data set on Monocyte [1] was “Non-Toxic”. In addition, the outcome in the data set with Monocyte [2] was inactive.
